Measured values: patent US10279053B2, “Microbubble compositions, method of making same, and method using same” (NuvOx Pharma LLC, priority 2011, dated 2019)

Key:
[1] = Boiling point / liquid-gas phase transition temperature of core gases; assay type: physicochemical; conditions: interstitial pressure of 795 mm Hg; gas law approximation
Description: Applicant's gaseous precursors include, for example, fluorinated carbons, perfluorocarbons, sulfur hexafluoride, perfluoro ethers and combinations thereof. As the stilled artisan will appreciate, a particular fluorinated compound, such as sulfur hexafluoride, a perfluorocarbon or a perfluoro ether, may exist in the liquid state when the compositions are first made, and are thus used as a gaseous precursor. Whether the fluorinated compound is a liquid generally depends on its liquid/gas phase transition temperature, or boiling point. For example, a preferred perfluorocarbon, perfluoropentane, has a liquid/gas phase transition temperature (boiling point) of 29.5° C. This means that perfluoropentane is generally a liquid at room temperature (about 25° C.), but is converted to a gas within the human body, the normal temperature of which is about 37° C., which is above the transition temperature of perfluoropentane. Thus, under normal circumstances, perfluoropentane is a gaseous precursor. As known to one skilled in the art, the effective boiling point of a substance may be related to the pressure to which that substance is exposed. This relationship is exemplified by the ideal gas law: PV=nRT, where P is pressure, V is volume, n is moles of substance, R is the gas constant, and T is temperature. […] Conversely, as pressure decreases, the effective boiling point decreases. […]

[2] = standard pressure of about 760 mm Hg; cited from earlier work

boiling point at interstitial pressure [1]: about 30.5 °C
Compound: FC(F)(F)C(F)(F)C(F)(F)C(F)(F)C(F)(F)F [Perfluoropentane]
liquid/gas phase transition temperature (boiling point) [2]: 29.5 °C
